Test results as given in patent US20100004292A1, “Iminooxazolidine Derivatives and Their Use” (Bayer HealthCare AG, priority 2005, published 2010).

Molecular target: human factor Xa (FXa) (Homo sapiens, UniProt P00742)
Assay: Determination of the factor Xa inhibition (chromogenic substrate)
Format: biochemical
Conditions: human FXa 0.5 nmol/l, 150 μmol/l Pefachrome FXa, 25° C., pH 8.3
Description: The enzymatic activity of human factor Xa (FXa) is measured using the conversion of a chromogenic substrate specific for FXa. Factor Xa cleaves p-nitroaniline from the chromogenic substrate. The determinations are carried out in microtiter plates as follows:
The test substances, in various concentrations, are dissolved in DMSO and incubated for 10 minutes at 25° C. with human FXa (0.5 nmol/l dissolved in 50 mmol/l of Tris buffer [C,C,C-tris(hydroxymethyl)aminomethane], 150 mmol/l of NaCl, 0.1% BSA [bovine serum albumin], pH=8.3). Pure DMSO is used as control. The chromogenic substrate (150 μmol/l Pefachrome® FXa from Pentapharm) is then added. After an incubation time of 20 minutes at 25° C., the extinction at 405 nm is determined.

Sequence of human factor Xa (FXa) (P00742 235-488 limits assumed): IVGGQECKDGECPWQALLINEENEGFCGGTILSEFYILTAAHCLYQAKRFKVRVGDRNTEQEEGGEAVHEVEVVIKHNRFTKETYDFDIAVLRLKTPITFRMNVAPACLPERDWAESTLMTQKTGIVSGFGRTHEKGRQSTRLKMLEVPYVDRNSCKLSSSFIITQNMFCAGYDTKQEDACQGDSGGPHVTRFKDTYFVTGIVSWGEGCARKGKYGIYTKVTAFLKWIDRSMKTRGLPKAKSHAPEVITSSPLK
Sequence of human factor Xa (FXa) (P00742 41-179 partner limits assumed): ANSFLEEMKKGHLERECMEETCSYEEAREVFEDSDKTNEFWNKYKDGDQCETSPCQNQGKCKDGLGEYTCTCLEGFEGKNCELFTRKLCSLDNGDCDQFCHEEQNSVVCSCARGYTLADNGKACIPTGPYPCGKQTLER

Compound	IC50
N=C1OCCN1c1ccc(NC(=O)c2ccc(C(F)(F)F)cc2NC(=O)c2ccc(Cl)s2)cc1 [Example 3, 5-Chloro-N-[2-({[4-(2-imino-1,3-oxazolidin-3-yl)phenyl]amino}carbonyl)-5-(trifluoromethyl)-phenyl]thiophene-2-carboxamide methanesulfonate]	1.1 nM
N=C1OCCN1c1ccc(NC(=O)c2ccncc2NC(=O)c2ccc(Cl)s2)cc1 [Example 11, 3-{[(5-Chloro-2-thienyl)carbonyl]amino}-N-[4-(2-imino-1,3-oxazolidin-3-yl)phenyl]isonicotinamide methanesulfonate]	6.3 nM
N=C1OCCN1c1ccc(NC(=O)c2cscc2NC(=O)c2ccc(Cl)s2)cc1 [Example 16, 5-Chloro-N-[4-({[4-(2-imino-1,3-oxazolidin-3-yl)phenyl]amino}carbonyl)-3-thienyl]thiophene-2-carboxamide methanesulfonate]	2.2 nM
Cc1cc(NC(=O)c2ccc(Cl)s2)c(C(=O)Nc2ccc(N3CCOC3=N)cc2)cc1N(C)C [Example 20, 5-Chloro-N-[4-(dimethylamino)-2-({[4-(2-imino-1,3-oxazolidin-3-yl)phenyl]amino}carbonyl)-5-methylphenyl]thiophene-2-carboxamide methanesulfonate]	0.66 nM
CSc1nc(NC(=O)c2ccc(Cl)s2)c(C(=O)Nc2ccc(N3CCOC3=N)cc2)s1 [Example 24, 4-{[(5-Chloro-2-thienyl)carbonyl]amino}-N-[4-(2-imino-1,3-oxazolidin-3-yl)phenyl]-2-(methyl-thio)-1,3-thiazole-5-carboxamide methanesulfonate]	0.91 nM
